According to the Kinase Knowledgebase extract (Sharma et al. 2016):

How the values were obtained:
PIK3CA (human) = PIK3CA (human) (UniProt P42336); assay: Assessment of PIK3CA Kinase Activity
PIK3CG (human) = PIK3CG (human) (UniProt P48736); assay: Assessment of PIK3CG Kinase Activity
PIK3CD (Human) = PIK3CD (Human) (UniProt O00329); assay: Assessment of PIK3CD Kinase Activity
PIK3CD (Human), sequence (O00329 whole entry, looked up): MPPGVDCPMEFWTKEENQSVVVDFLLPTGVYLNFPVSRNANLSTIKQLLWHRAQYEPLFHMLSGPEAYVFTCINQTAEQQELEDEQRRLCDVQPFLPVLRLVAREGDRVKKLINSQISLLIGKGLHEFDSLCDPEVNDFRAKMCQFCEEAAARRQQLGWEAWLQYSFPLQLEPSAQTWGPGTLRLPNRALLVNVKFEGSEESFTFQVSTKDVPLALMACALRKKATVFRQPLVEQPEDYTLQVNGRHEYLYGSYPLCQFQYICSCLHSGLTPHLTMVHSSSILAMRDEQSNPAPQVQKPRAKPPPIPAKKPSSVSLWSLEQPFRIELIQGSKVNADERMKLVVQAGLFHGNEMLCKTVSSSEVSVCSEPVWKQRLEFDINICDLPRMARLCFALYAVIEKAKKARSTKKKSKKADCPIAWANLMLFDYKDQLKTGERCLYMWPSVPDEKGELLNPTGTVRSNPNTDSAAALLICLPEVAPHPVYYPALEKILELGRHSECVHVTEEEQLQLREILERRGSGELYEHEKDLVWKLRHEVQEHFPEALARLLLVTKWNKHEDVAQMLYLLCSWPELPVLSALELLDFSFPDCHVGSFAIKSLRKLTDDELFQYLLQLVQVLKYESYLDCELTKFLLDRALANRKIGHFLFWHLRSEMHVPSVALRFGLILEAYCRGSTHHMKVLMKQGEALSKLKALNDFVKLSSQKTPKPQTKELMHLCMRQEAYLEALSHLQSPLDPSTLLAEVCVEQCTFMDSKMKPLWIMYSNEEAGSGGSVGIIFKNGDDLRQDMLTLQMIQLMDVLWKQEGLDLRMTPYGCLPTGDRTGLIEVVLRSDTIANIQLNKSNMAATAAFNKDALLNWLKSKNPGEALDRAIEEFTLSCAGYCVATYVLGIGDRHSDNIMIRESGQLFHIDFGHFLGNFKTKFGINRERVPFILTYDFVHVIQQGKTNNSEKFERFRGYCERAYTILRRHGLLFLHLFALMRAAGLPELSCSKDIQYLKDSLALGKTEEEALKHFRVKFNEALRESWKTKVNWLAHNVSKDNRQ

PIK3CG (human), sequence (P48736 whole entry, looked up): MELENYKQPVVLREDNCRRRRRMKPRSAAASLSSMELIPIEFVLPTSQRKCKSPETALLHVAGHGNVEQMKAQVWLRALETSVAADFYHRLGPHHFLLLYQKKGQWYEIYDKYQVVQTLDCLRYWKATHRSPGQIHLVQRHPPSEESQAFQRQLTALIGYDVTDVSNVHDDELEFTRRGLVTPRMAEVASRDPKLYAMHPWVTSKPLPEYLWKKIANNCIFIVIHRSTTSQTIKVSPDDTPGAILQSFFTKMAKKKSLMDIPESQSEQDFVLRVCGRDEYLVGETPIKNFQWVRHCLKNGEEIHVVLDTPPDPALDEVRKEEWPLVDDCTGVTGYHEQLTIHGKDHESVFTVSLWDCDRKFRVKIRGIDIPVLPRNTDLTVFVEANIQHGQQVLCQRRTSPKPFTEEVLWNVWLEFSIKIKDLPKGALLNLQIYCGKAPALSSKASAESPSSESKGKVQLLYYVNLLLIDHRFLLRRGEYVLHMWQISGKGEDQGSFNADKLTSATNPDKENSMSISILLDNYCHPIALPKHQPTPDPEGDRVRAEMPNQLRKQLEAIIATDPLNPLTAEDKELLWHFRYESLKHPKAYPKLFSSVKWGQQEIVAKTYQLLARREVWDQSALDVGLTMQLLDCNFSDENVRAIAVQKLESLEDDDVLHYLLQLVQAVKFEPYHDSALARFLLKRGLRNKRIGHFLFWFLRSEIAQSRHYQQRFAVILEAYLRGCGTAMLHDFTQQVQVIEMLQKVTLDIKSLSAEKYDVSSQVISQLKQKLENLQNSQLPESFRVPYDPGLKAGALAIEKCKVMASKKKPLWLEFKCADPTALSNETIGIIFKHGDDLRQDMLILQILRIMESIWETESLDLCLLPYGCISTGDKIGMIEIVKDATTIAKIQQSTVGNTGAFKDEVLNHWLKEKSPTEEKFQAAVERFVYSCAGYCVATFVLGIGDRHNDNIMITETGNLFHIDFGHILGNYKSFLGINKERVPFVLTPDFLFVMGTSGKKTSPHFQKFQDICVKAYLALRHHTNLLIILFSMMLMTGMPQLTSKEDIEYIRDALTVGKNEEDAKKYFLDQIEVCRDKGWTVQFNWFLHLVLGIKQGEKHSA
PIK3CA (human), sequence (P42336 whole entry, looked up): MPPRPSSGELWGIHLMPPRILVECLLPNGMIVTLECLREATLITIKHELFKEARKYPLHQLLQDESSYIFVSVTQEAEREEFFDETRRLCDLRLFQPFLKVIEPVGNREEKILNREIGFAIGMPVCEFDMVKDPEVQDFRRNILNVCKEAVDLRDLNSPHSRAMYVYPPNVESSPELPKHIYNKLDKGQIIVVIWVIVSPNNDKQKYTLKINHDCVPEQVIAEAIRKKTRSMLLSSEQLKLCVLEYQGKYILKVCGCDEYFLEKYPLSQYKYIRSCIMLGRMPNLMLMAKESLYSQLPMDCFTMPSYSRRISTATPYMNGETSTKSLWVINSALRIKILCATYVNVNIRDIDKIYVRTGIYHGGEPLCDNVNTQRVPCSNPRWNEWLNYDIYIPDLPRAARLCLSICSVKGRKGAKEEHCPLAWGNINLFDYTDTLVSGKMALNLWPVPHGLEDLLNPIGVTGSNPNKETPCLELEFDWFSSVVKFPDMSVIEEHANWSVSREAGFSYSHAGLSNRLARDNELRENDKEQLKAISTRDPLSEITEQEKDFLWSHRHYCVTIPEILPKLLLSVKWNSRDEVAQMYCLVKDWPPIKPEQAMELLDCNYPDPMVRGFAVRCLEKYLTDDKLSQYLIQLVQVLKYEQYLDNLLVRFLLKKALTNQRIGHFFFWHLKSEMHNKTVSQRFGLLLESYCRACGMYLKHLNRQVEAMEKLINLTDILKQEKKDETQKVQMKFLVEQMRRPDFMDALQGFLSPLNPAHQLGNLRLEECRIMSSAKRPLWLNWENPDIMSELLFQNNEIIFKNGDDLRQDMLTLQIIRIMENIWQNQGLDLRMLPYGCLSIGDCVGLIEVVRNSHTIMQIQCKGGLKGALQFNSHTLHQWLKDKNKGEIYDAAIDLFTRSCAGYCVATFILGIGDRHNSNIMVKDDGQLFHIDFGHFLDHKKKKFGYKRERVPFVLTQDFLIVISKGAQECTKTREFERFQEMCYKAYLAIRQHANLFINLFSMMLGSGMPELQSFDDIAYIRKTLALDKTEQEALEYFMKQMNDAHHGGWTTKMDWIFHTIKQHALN

IC50 (PIK3CA (human)) [nM]	IC50 (PIK3CG (human)) [nM]	IC50 (PIK3CD (Human)) [nM]	SMILES
100 to 1000	< 100	< 100	C[C@H](Nc1nc(N)ncc1C#N)c1cc2cccc(-c3cnc4ccccc4c3)c2c(=O)n1-c1cccc(F)c1
> 10000	100 to 1000	100 to 1000	C[C@H](Nc1nc(N)ncc1C#N)c1cc2cccc(Cl)c2c(=O)n1-c1ccc(OC(F)(F)F)cc1
< 100	< 100	< 100	COc1cc(-c2cccc3cc([C@H](C)Nc4nc(N)ncc4C#N)n(-c4ccccc4)c(=O)c23)cnc1OC
100 to 1000	< 100	< 100	C[C@H](Nc1nc(N)ncc1C#N)c1cc2cccc(-c3ccc(F)cc3)c2c(=O)n1-c1ccccc1
> 10000	< 100	100 to 1000	C[C@H](Nc1nc(N)ncc1-c1ccncc1)c1cc2cccc(Cl)c2c(=O)n1-c1ccccc1
	< 100	< 100	C[C@H](Nc1nc(N)ncc1C#N)c1cc2cccc(-c3ccc(S(N)(=O)=O)cc3)c2c(=O)n1-c1ccccc1
100 to 1000	< 100	< 100	C[C@H](Nc1nc(N)ncc1C#N)c1cc2cccc(-c3ccc(=O)n(C4CCOCC4)c3)c2c(=O)n1-c1ccccc1
> 10000	< 100	< 100	C[C@H](Nc1nc(N)ncc1C#N)c1cc2cccc(O)c2c(=O)n1-c1ccccc1
< 100	< 100	< 100	C[C@H](Nc1nc(N)ncc1C#N)c1cc2cccc(-c3cncc(O)c3)c2c(=O)n1-c1ccccc1
100 to 1000	< 100	< 100	C[C@H](Nc1nc(N)ncc1C#N)c1cc2cccc(-c3cncc(N(C)S(C)(=O)=O)c3)c2c(=O)n1-c1ccccc1
	< 100	< 100	C[C@H](Nc1nc(N)ncc1C#N)c1cc2cccc(-c3ccnc(NS(C)(=O)=O)c3)c2c(=O)n1-c1ccccc1
> 10000	< 100	100 to 1000	C[C@H](Nc1nc(N)ncc1C#N)c1cc2cccc(Cl)c2c(=O)n1-c1c(F)cc(F)cc1F
> 10000	< 100	< 100	C[C@H](Nc1nc(N)ncc1C#N)c1cc2cccc(Cl)c2c(=O)n1-c1cccc(F)c1F
> 10000	< 100	100 to 1000	C[C@H](Nc1nc(N)ncc1-c1ccccn1)c1cc2cccc(Cl)c2c(=O)n1-c1ccccc1
100 to 1000	< 100	< 100	C[C@H](Nc1nc(N)ncc1C#N)c1cc2cccc(-c3cccc(N(C)C)c3)c2c(=O)n1-c1ccccc1
> 10000	100 to 1000		C[C@H](Nc1nc(N)ncc1C#N)c1cc2cccc(Cl)c2c(=O)n1-c1ccc(C#N)cc1
	< 100	< 100	CCn1cc(-c2cccc3cc([C@H](C)Nc4nc(N)ncc4C#N)n(-c4ccccc4)c(=O)c23)ccc1=O
> 10000	< 100	100 to 1000	C[C@H](Nc1nc(N)ncc1-c1cnn(C)c1)c1cc2cccc(Cl)c2c(=O)n1-c1ccccc1
100 to 1000	< 100	< 100	Cc1cccc(-c2cccc3cc([C@H](C)Nc4nc(N)ncc4C#N)n(-c4ccccc4)c(=O)c23)c1
	< 100	< 100	C[C@H](Nc1nc(N)ncc1C#N)c1cc2cccc(-c3ccc(NS(C)(=O)=O)cc3)c2c(=O)n1-c1ccccc1
	< 100	< 100	C[C@H](Nc1nc(N)ncc1C#N)c1cc2cccc(-c3ccc(Cl)cc3)c2c(=O)n1-c1ccccc1
	100 to 1000	< 100	COc1ncc(-c2cccc3cc([C@H](C)Nc4nc(N)ncc4C#N)n(C4CC4)c(=O)c23)cn1

IC50 (PIK3CA (human)) [nM]	IC50 (PIK3CG (human)) [nM]	IC50 (PIK3CD (Human)) [nM]	SMILES
> 10000	< 100	< 100	C[C@H](Nc1nc(N)ncc1-c1ccsc1)c1cc2cccc(Cl)c2c(=O)n1-c1ccccc1
< 100	< 100	< 100	CC(C)Oc1cncc(-c2cccc3cc([C@H](C)Nc4nc(N)ncc4C#N)n(-c4ccccc4)c(=O)c23)c1
	< 100	< 100	C[C@H](Nc1nc(N)ncc1C#N)c1cc2cccc(-c3cncc(S(C)(=O)=O)c3)c2c(=O)n1-c1ccccc1
> 10000	< 100	< 100	Cc1cccc2cc([C@H](C)Nc3nc(N)ncc3C(F)(F)F)n(-c3cccc(F)c3)c(=O)c12
	< 100	< 100	Cc1ncc(-c2cccc3cc([C@H](C)Nc4nc(N)ncc4C#N)n(-c4ccccc4)c(=O)c23)s1
	< 100	< 100	CC(C)n1cc(-c2cccc3cc([C@H](C)Nc4nc(N)ncc4C#N)n(-c4ccccc4)c(=O)c23)ccc1=O
	< 100	< 100	C[C@H](Nc1nc(N)ncc1C#N)c1cc2ccccc2c(=O)n1-c1ccccc1
	< 100	< 100	COc1ncc(-c2cccc3cc([C@H](C)Nc4nc(N)ncc4C#N)n(-c4ccccc4)c(=O)c23)s1
	< 100	< 100	C[C@H](Nc1nc(N)ncc1C#N)c1cc2cccc(-c3ccc4c(c3)OCO4)c2c(=O)n1-c1ccccc1
100 to 1000	< 100	< 100	COc1cc(-c2cccc3cc([C@H](C)Nc4nc(N)ncc4-c4cnc(OC)s4)n(-c4ccccc4)c(=O)c23)ccn1
> 10000	100 to 1000	< 100	C[C@H](Nc1nc(N)ncc1C#N)c1cc2cccc(Cl)c2c(=O)n1Cc1ccccc1
> 10000	100 to 1000	100 to 1000	Cc1nc(-c2cnc(N)nc2N[C@@H](C)c2cc3cccc(Cl)c3c(=O)n2-c2ccccc2)sc1C
	< 100	< 100	C[C@H](Nc1nc(N)ncc1C#N)c1cc2cccc(-c3cccc(C#N)c3)c2c(=O)n1-c1ccccc1
100 to 1000	< 100	< 100	Cc1cc(-c2cccc3cc([C@H](C)Nc4nc(N)ncc4C#N)n(-c4ccccc4)c(=O)c23)ccn1
	< 100	< 100	C[C@H](Nc1nc(N)ncc1C#N)c1nc2cccc(-c3ccnnc3)c2c(=O)n1-c1ccccc1
100 to 1000	< 100	< 100	C[C@H](Nc1nc(N)ncc1C#N)c1cc2cccc(-c3ccc(=O)n(C4CCCC4)c3)c2c(=O)n1-c1ccccc1
	< 100	< 100	C[C@H](Nc1nc(N)ncc1C#N)c1cc2cccc(-c3ccc(N(C)C)cc3)c2c(=O)n1-c1ccccc1
	< 100	< 100	C[C@H](Nc1nc(N)ncc1C#N)c1cc2cccc(-c3cccc(S(N)(=O)=O)c3)c2c(=O)n1-c1ccccc1
	< 100	< 100	Cc1cc(-c2cccc3cc([C@H](C)Nc4nc(N)ncc4C#N)n(-c4cccc(F)c4)c(=O)c23)ccn1
> 10000	< 100	< 100	COc1cccc(-c2cccc3cc([C@H](C)Nc4nc(N)ncc4C#N)n(-c4ccccc4)c(=O)c23)n1
> 10000	< 100	< 100	C[C@H](Nc1nc(N)ncc1C#N)c1cc2cccc(CC#N)c2c(=O)n1-c1ccccc1
	< 100	< 100	COc1ccc(-c2cccc3cc([C@H](C)Nc4nc(N)ncc4C#N)n(-c4ccccc4)c(=O)c23)cc1

IC50 (PIK3CA (human)) [nM]	IC50 (PIK3CG (human)) [nM]	IC50 (PIK3CD (Human)) [nM]	SMILES
100 to 1000	< 100	< 100	Cc1cncc(-c2cccc3cc([C@H](C)Nc4nc(N)ncc4C#N)n(-c4cccc(F)c4)c(=O)c23)c1
> 10000	100 to 1000	< 100	C[C@H](Nc1nc(N)ncc1C#N)c1cc2cccc(-c3ccnnc3)c2c(=O)n1-c1cccc(F)c1
	< 100	< 100	C[C@H](Nc1nc(N)ncc1C#N)c1cc2cccc(-c3ccnc(N)c3)c2c(=O)n1-c1ccccc1
	< 100	< 100	C[C@H](Nc1nc(N)ncc1C#N)c1cc2cccc(C#CCCC(=O)N3CCCC3)c2c(=O)n1-c1ccccc1
	< 100	< 100	C[C@H](Nc1nc(N)ncc1-c1nccs1)c1cc2cccc(Cl)c2c(=O)n1-c1ccccc1
	< 100	< 100	C[C@H](Nc1nc(N)ncc1C#N)c1cc2cccc(-c3c[nH]nn3)c2c(=O)n1-c1ccccc1
> 10000	< 100	100 to 1000	Cc1cnc(-c2cnc(N)nc2N[C@@H](C)c2cc3cccc(Cl)c3c(=O)n2-c2ccccc2)s1
	< 100	< 100	C[C@H](Nc1nc(N)ncc1C#N)c1cc2cccc(-c3ccc(C#N)cc3)c2c(=O)n1-c1ccccc1
	< 100	< 100	COc1ccc(-c2cccc3cc([C@H](C)Nc4nc(N)ncc4C#N)n(-c4ccccc4)c(=O)c23)cn1
	< 100	< 100	C[C@H](Nc1nc(N)ncc1C#N)c1nc2cccc(-c3cnn(C)c3)c2c(=O)n1-c1ccccc1
	< 100	< 100	COc1cc(-c2cccc3nc([C@H](C)Nc4nc(N)ncc4C#N)n(-c4ccccc4)c(=O)c23)ccn1
	< 100	< 100	C[C@H](Nc1nc(N)ncc1C#N)c1cc2cccc(-c3ccc(=O)n(CC4CC4)c3)c2c(=O)n1-c1ccccc1
	< 100	< 100	C[C@H](Nc1nc(N)ncc1C#N)c1cc2cccc(-c3ccc(=O)n(C)c3)c2c(=O)n1-c1ccccc1
	< 100	< 100	Cc1cncc(-c2cccc3cc([C@H](C)Nc4nc(N)ncc4C#N)n(-c4ccccc4)c(=O)c23)c1
	< 100	< 100	Cc1cc(-c2cccc3nc([C@H](C)Nc4nc(N)ncc4C#N)n(-c4ccccc4)c(=O)c23)ccn1
	< 100	< 100	C[C@H](Nc1nc(N)ncc1C#N)c1cc2cccc(Cl)c2c(=O)n1C1CCCCC1
	< 100	< 100	C[C@H](Nc1nc(N)ncc1C#N)c1cc2cccc(-c3cnoc3)c2c(=O)n1-c1ccccc1
	< 100	< 100	C[C@H](Nc1nc(N)ncc1C#N)c1cc2cccc(-c3cncc(C(F)(F)F)c3)c2c(=O)n1-c1ccccc1
	< 100	< 100	C[C@H](Nc1nc(N)ncc1C#N)c1cc2cccc(-c3cccc(NS(C)(=O)=O)c3)c2c(=O)n1-c1ccccc1
	< 100	< 100	C[C@H](Nc1nc(N)ncc1C#N)c1cc2cccc(-c3cncc(F)c3)c2c(=O)n1-c1ccccc1
